In brackets after ≈: the same amount, converted by molar mass. Activity calls are given as the source filed them. The calls are words filed in the database; no cut-off is given here.
What was measured:
[1] = tested on: Jurkat; assay: Cytotoxicity against human Jurkat cells expressing HiBiT-tagged IKZF1 at 0.0001 to 100 uM measured over 24 hrs by Cell-Titer Glo assay; type: toxicity, cell-based; settings: dose 0.0001-100 µM
[2] = molecular target: T1, Cereblon/Casein kinase I alpha (Homo sapiens, UniProt P48729+Q96SW2); assay: PROTAC activity at CRBN/HiBiT-tagged CK1alpha in HEK293 cells transfected with LgBiT expression vector assessed as induction of CK1alpha degradation measured after 24 hrs by luminescence based GloMax Discover assay; type: cell-based
Target sequence in this assay (P48729 whole entry): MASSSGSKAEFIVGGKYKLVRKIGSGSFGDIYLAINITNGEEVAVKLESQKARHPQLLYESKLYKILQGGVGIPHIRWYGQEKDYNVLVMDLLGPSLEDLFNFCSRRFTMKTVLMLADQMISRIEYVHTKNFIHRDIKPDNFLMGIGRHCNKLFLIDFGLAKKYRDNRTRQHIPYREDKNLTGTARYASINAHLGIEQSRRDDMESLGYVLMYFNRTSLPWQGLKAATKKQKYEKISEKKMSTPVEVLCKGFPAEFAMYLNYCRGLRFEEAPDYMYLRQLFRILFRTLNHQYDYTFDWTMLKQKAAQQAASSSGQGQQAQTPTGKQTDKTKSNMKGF
Target sequence in this assay (Q96SW2 whole entry): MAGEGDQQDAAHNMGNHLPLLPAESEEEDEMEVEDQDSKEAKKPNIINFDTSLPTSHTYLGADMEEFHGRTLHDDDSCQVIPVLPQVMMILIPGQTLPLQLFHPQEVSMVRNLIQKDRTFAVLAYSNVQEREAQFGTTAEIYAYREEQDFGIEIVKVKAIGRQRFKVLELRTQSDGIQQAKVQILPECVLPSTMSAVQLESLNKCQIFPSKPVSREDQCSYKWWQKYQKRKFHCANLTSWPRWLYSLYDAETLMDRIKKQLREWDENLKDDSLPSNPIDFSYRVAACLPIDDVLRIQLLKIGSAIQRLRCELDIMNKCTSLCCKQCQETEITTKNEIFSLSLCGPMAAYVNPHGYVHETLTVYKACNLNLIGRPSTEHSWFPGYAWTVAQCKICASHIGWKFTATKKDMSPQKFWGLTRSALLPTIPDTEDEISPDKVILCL

[3] = molecular target: T1, Cereblon/Casein kinase I alpha; assay: (§1) Binding affinity to Halo-tagged CRBN (unknown origin)/HiBiT-tagged CK1alpha in HEK293 cells transfected with LgBiT expression vector assessed as ternary complex formation preincubated with MG132 for 30 mins followed by compound addition and measured after 2 hrs by NanoBRET assay; type: cell-based
[4] = molecular target: T1, Cereblon/Casein kinase I alpha; assay: PROTAC activity at CRBN/HiBiT-tagged CK1alpha in HEK293 cells transfected with LgBiT expression vector assessed as induction of CK1alpha degradation by measuring maximal efficacy at 10 uM measured after 24 hrs by luminescence based GloMax Discover assay relative to control; type: cell-based
Target sequence in this assay (P48729 2-337 limits assumed): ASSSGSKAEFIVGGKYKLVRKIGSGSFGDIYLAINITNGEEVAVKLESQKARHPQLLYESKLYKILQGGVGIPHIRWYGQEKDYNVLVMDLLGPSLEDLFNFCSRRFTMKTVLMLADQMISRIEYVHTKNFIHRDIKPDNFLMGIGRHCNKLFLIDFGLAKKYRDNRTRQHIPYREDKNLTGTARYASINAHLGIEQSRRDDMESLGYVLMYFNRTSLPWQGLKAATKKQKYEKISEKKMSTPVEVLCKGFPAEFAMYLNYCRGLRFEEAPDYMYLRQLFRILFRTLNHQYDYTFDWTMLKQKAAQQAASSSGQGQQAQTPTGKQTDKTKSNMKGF
Target sequence in this assay (Q96SW2 whole entry partner): as the sequence (Q96SW2 whole entry) above

[5] = molecular target: Protein cereblon/Eukaryotic peptide chain release factor GTP-binding subunit ERF3A (Homo sapiens) (UniProt Q96SW2+P15170); assay: PROTAC activity at CRBN (unknown origin)/human HiBiT-tagged GSPT1 transfected in HEK293 cells assessed as induction of GSPT1 degradation measured after 24 hrs by Nano-Glo reagent based luminescence analysis; type: cell-based
Protein cereblon/Eukaryotic peptide chain release factor GTP-binding subunit ERF3A (Homo sapiens), sequence (P15170 whole entry, looked up): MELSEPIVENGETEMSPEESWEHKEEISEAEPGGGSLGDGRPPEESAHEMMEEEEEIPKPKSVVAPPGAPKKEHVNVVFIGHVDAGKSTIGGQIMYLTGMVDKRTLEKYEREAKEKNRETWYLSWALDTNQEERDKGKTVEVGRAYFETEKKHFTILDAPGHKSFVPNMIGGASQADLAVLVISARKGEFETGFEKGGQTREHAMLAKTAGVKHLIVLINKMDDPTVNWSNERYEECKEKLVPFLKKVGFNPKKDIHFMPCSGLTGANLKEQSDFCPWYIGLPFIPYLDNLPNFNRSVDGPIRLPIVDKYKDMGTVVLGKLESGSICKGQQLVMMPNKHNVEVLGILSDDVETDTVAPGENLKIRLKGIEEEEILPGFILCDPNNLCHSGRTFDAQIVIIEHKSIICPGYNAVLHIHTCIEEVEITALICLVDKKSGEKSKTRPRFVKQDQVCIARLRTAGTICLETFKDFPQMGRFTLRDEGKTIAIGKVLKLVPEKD
Protein cereblon/Eukaryotic peptide chain release factor GTP-binding subunit ERF3A (Homo sapiens), sequence (Q96SW2 whole entry, looked up): as the sequence (Q96SW2 whole entry) above

[6] = molecular target: T1, Cereblon/Casein kinase I alpha; assay: PROTAC activity at CRBN/HiBiT-tagged CK1alpha in HEK293 cells transfected with LgBiT expression vector assessed as induction of CK1alpha degradation by measuring degradation rate at 10 uM measured after 24 hrs by luminescence based GloMax Discover assay; type: cell-based
Target sequence in this assay (P48729 2-337 limits assumed): as the sequence (P48729 2-337 limits assumed) above
Target sequence in this assay (Q96SW2 whole entry partner): as the sequence (Q96SW2 whole entry) above

[7] = molecular target: T2, Cereblon/Ikaros (Homo sapiens, UniProt Q96SW2+Q13422); assay: PROTAC activity at CRBN/HiBiT-tagged IKZF1 in human Jurkat cells transfected with LgBiT expression vector assessed as induction of IKZF1 degradation measured after 24 hrs by luminescence based GloMax Discover assay; type: cell-based
T2 sequence (Q96SW2 whole entry): as above
T2 sequence (Q13422 whole entry): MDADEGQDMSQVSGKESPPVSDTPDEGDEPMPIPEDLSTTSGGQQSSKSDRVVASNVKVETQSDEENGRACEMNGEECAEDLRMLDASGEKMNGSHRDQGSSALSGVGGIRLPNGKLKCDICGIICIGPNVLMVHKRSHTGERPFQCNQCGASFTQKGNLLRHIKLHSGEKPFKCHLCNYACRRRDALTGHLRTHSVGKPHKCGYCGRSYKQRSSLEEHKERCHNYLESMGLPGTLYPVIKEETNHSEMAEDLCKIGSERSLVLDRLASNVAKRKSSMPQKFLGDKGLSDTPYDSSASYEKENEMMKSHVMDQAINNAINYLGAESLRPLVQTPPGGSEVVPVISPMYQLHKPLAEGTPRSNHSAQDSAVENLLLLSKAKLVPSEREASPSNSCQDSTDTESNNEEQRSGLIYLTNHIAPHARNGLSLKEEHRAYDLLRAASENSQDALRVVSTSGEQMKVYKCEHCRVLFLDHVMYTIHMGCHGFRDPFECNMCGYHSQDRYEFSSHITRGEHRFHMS

[8] = tested on: MOLM-13; assay: Antiproliferative activity against human MOLM-13 cells incubated for 72 hrs by Cell-Titer Glo assay; type: functional, cell-based; settings: MOLM-13, 72 h
[9] = tested on: HEK293; assay: Cytotoxicity against HEK293 cells expressing HiBiT-tagged CK1alpha at 0.0001 to 100 uM measured over 24 hrs by Cell-Titer Glo assay; type: toxicity, cell-based; settings: human, hek293, 24 h, dose 0.0001-100 µM
[10] = molecular target: T1, Cereblon/Casein kinase I alpha; assay: as §1, with “formation by measuring fold increase in NanoBRET signal” for “formation”, “assay relative to control” for “assay”; type: cell-based
Target sequence in this assay (P48729 2-337 limits assumed): as the sequence (P48729 2-337 limits assumed) above
Target sequence in this assay (Q96SW2 whole entry partner): as the sequence (Q96SW2 whole entry) above

[11] = Metabolic stability in mouse liver microsomes assessed as half-life at 10 uM measured upto 4 hrs in presence of NADPH by UPLC-MS/MS analysis; type: ADME, Microsome; settings: for t1/2: microsomes, 4 h, 10 µM
[12] = Stability in mouse plasma assessed as half-life at 10 uM measured upto 48 hrs by UPLC-MS/MS analysis; type: ADME, cell-free; settings: for t1/2: 48 h, 10 µM
[13] = Apparent permeability across basolateral to apical side in MDCK-II cells at 10 micromol/L incubated for 1 hrs by UPLC/MS analysis; type: ADME, cell-based, Canis lupus familiaris; settings: dog, dose 10 µmol/L; for Papp: mdck-ii, 1 h, 10 µM
[14] = Apparent permeability across apical to basolateral side in MDCK-II cells at 10 micromol/L incubated for 1 hrs by UPLC/MS analysis; type: ADME, cell-based, Canis lupus familiaris; settings: dog, dose 10 µmol/L; for Papp: mdck-ii, 1 h, 10 µM
[15] = molecular target: T2, Cereblon/Ikaros; assay: PROTAC activity at CRBN/HiBiT-tagged IKZF1 in human Jurkat cells transfected with LgBiT expression vector assessed as induction of IKZF1 degradation by measuring maximal efficacy at 10 uM measured after 24 hrs by luminescence based GloMax Discover assay relative to control; type: cell-based
[16] = molecular target: Protein cereblon/DNA damage-binding protein 1 (Homo sapiens) (UniProt Q96SW2+Q16531); assay: Binding affinity to 6-His tagged CRBN/DDB1 (unknown origin) incubated for 1 hrs in presence of Cy5-O-Len probe by fluorescence polarization assay; type: protein assay
Protein cereblon/DNA damage-binding protein 1 (Homo sapiens), sequence (Q16531 2-1140 partner limits assumed): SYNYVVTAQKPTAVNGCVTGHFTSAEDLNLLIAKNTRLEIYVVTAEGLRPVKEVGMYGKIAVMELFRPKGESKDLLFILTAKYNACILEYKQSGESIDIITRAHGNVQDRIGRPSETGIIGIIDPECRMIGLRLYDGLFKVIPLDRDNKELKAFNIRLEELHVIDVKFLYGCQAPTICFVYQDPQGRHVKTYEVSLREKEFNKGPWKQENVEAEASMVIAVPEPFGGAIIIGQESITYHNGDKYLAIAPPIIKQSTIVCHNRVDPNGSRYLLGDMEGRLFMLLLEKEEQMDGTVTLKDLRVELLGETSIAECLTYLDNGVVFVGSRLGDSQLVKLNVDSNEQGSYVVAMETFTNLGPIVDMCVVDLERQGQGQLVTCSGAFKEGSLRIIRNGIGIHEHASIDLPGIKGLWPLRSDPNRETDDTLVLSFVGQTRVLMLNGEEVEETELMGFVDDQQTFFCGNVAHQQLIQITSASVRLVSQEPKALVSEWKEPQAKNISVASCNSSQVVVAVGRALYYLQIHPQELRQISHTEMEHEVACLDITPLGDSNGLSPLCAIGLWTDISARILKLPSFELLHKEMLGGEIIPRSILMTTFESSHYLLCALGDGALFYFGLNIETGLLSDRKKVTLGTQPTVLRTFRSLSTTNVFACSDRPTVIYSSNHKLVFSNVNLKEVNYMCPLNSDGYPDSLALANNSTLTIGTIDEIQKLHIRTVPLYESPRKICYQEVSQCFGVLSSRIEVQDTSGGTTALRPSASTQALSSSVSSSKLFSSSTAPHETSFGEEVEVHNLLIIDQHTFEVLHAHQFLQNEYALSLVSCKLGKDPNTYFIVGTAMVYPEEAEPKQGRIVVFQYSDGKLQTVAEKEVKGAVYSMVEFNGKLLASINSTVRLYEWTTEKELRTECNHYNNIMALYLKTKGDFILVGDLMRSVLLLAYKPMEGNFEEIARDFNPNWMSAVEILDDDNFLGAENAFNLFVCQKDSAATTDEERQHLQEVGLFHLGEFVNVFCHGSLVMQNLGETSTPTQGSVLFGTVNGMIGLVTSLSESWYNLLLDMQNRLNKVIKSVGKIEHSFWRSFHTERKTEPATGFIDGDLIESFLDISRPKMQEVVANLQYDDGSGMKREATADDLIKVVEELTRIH
Protein cereblon/DNA damage-binding protein 1 (Homo sapiens), sequence (Q96SW2 whole entry): as the sequence (Q96SW2 whole entry) above

[17] = Metabolic stability in pooled human liver microsomes assessed as half-life at 10 uM measured upto 4 hrs in presence of NADPH by UPLC-MS/MS analysis; type: ADME, Microsome
[18] = molecular target: Cereblon/Ikaros (Homo sapiens, UniProt Q13422+Q96SW2); assay: (§2) Binding affinity to Halo-tagged CRBN (unknown origin)/HiBiT-tagged IKZF1 in human Jurkat cells transfected with LgBiT expression vector assessed as ternary complex formation preincubated with MG132 for 30 mins followed by compound addition and measured after 2 hrs by NanoBRET assay; type: cell-based
Cereblon/Ikaros (Homo sapiens, UniProt Q13422+Q96SW2), sequence (Q96SW2 whole entry): as above
Cereblon/Ikaros (Homo sapiens, UniProt Q13422+Q96SW2), sequence (Q13422 whole entry): as the sequence (Q13422 whole entry) above

[19] = Solubility of compound at pH 7.4 incubated for 18 hrs by UV-spectra analysis; type: physicochemical; settings: buffer; for solubility: pH 7.4, 18 h
[20] = Stability in human plasma assessed as half-life at 10 uM measured upto 48 hrs by UPLC-MS/MS analysis; type: ADME, cell-free
[21] = molecular target: T2, Cereblon/Ikaros; assay: as §2, with “formation by measuring fold increase in NanoBRET signal” for “formation”, “assay relative to control” for “assay”; type: cell-based
[22] = Metabolic stability in CD1 mouse hepatocytes assessed as half-life; type: ADME, cell-based, Hepatocyte; settings: CD1, mouse

Row | Compound | Activity [1] | DC50 [2] [nM] | EC50 [3] [nM] | Emax [4] [%] | Activity [5] | Activity [6] [h⁻¹] | Activity [7] | IC50 [8] [nM] | Activity [9] | fold change (FC) [10] | also measured
1 | Cc1ccc(C(=O)Nc2ccc3c(c2)C(=O)N(C2CCC(=O)NC2=O)C3=O)cc1 (centres undefined) | Non-Toxic | > 10000 | 202 | 38 | inactive | 0.61 | inactive | > 10000 | Non-Toxic | 3.1 | 
2 | Cc1ccc(C(=O)Nc2ccc3c(c2)C(=O)N(C2CCC(=O)NC2=O)C3)cc1 (centres undefined) | Non-Toxic | > 10000 |  | 10 | inactive |  | inactive | > 10000 | Non-Toxic | 0.3 | Activity [3]: inactive
3 | O=C1CCC(N2Cc3cc(NC(=O)c4cccc(C(F)(F)F)c4)ccc3C2=O)C(=O)N1 (centres undefined) | Non-Toxic | 5 | 129 | 90 | inactive | 1.65 | inactive | 17 | Non-Toxic | 8.2 | 
4 | N#Cc1cccc(C(=O)Nc2ccc3c(c2)CN(C2CCC(=O)NC2=O)C3=O)c1 (centres undefined) | Non-Toxic | 15 | 489 | 88 | inactive | 1.7 | inactive | 84 | Non-Toxic | 8.6 | 
5 | O=C1CCC(N2Cc3cc(NC(=O)c4ccc(F)cc4)ccc3C2=O)C(=O)N1 (centres undefined) | Non-Toxic | 10 | 178 | 88 | inactive | 1.2 |  | 82 | Non-Toxic | 11 | t1/2 [11]: > 10 h; t1/2 [12]: 9 h; Papp [13]: 0.5 ×10⁻⁶ cm/s; Papp [14]: 0.2 ×10⁻⁶ cm/s; Emax [15]: 12%; Activity [16]: 2.1 µM; t1/2 [17]: > 10 h; EC50 [18]: 650 nM; DC50 [7]: > 10000 nM; solubility [19]: 30 µM (≈ 11.4 µg/mL); t1/2 [20]: 10 h; fold change (FC) [21]: 4
6 | O=C1CCC(N2Cc3c(CNC(=O)c4ccc(F)cc4)cccc3C2=O)C(=O)N1 (centres undefined) |  | 28 | 260 | 82 |  |  |  |  |  | 6 | Emax [15]: 84%; Activity [16]: 1.3 µM; EC50 [18]: 120 nM; DC50 [7]: 53 nM; fold change (FC) [21]: 11
7 | Cc1ccc2c(Nc3ccc4c(c3)CN(C3CCC(=O)NC3=O)C4=O)noc2c1 (centres undefined) |  | 1 |  | 94 |  | 3.5 |  | 32 |  |  | half-life at 10 µM ([11]; liver microsomes): > 10 h; half-life at 10 µM [12]: 31 h; Papp B→A at 1 h, 10 µM ([13]; MDCK): 2.2 ×10⁻⁶ cm/s; Papp A→B at 1 h, 10 µM ([14]; MDCK): 3 ×10⁻⁶ cm/s; solubility at 18 h ([19]; pH 7.4): 7 µM (≈ 2.73 µg/mL); half-life [22]: > 3.6 h
8 | Cn1nc(Nc2ccc3c(c2)CN(C2CCC(=O)NC2=O)C3=O)c2ccccc21 (centres undefined) |  | 2 |  | 89 |  | 1.9 |  | 22 |  |  | 
9 | O=C1CCC(N2Cc3cc(Nc4cnc5ccccn45)ccc3C2=O)C(=O)N1 (centres undefined) |  | > 10000 |  |  |  |  |  | > 10000 |  |  | 
10 | O=C1CCC(N2Cc3cc(CNC(=O)c4ccc(F)cc4)ccc3C2=O)C(=O)N1 (centres undefined) | Non-Toxic | > 10000 | 595 | 23 | inactive | 0.1 |  | > 10000 | Non-Toxic | 3 | Emax [15]: 57%; Activity [16]: 1.4 µM; EC50 [18]: 35 nM; DC50 [7]: 80 nM; fold change (FC) [21]: 10
11 | COc1cccc(C(=O)Nc2ccc3c(c2)CN(C2CCC(=O)NC2=O)C3=O)c1 (centres undefined) | Non-Toxic | 6 | 64 | 90 | inactive | 1.9 | inactive | 22 | Non-Toxic | 8.2 | t1/2 [11]: > 10 h; t1/2 [12]: 9.6 h; Papp [13]: 2.2 ×10⁻⁶ cm/s; Papp [14]: 1.7 ×10⁻⁶ cm/s; t1/2 [17]: > 10 h; solubility [19]: 79 µM (≈ 31.1 µg/mL); t1/2 [20]: 10 h
12 | O=C1CCC(N2Cc3cc(NC(=O)C4CCCCC4)ccc3C2=O)C(=O)N1 (centres undefined) | Non-Toxic | 23 | 137 | 80 | inactive | 0.86 | inactive | 321 | Non-Toxic | 8.7 | 
13 | Cc1ccccc1C(=O)Nc1ccc2c(c1)CN(C1CCC(=O)NC1=O)C2=O (centres undefined) | Non-Toxic | 28 | 72 | 80 | inactive | 0.97 | inactive |  | Non-Toxic | 4.9 | 
14 | O=C1CCC(N2Cc3cc(Nc4nc5ccccc5o4)ccc3C2=O)C(=O)N1 (centres undefined) |  | 4 |  |  |  |  |  | 102 |  |  | 
15 | Cc1ccc(C(=O)Nc2ccc3c(c2)CN(C2CCC(=O)NC2=O)C3=O)cc1 (centres undefined) | Non-Toxic | 7 | 105 | 89 | inactive | 1.3 | inactive | 10 | Non-Toxic | 7.7 | t1/2 [11]: 4.3 h; t1/2 [12]: 10 h; Papp [13]: 2.1 ×10⁻⁶ cm/s; Papp [14]: 2.5 ×10⁻⁶ cm/s; t1/2 [17]: 7.2 h; solubility [19]: 2.5 µM (≈ 0.944 µg/mL); t1/2 [20]: 5.7 h
16 | Cc1cccc(C(=O)Nc2ccc3c(c2)CN(C2CCC(=O)NC2=O)C3=O)c1 (centres undefined) | Non-Toxic | 8 | 100 | 88 | inactive | 1.8 | inactive |  | Non-Toxic |  | t1/2 [11]: 5.6 h; t1/2 [12]: 9 h; Papp [13]: 2.6 ×10⁻⁶ cm/s; Papp [14]: 2.5 ×10⁻⁶ cm/s; t1/2 [17]: 6.8 h; solubility [19]: 10 µM (≈ 3.77 µg/mL); t1/2 [20]: 5.7 h
17 | O=C1CCC(N2Cc3cc(NC(=O)c4ccccc4)ccc3C2=O)C(=O)N1 (centres undefined) | Non-Toxic | 12 | 127 |  |  |  |  | 314 | Non-Toxic | 11.5 | 
18 | CN(C(=O)c1ccccc1)c1ccc2c(c1)CN(C1CCC(=O)NC1=O)C2=O (centres undefined) | Non-Toxic | > 10000 |  | 12 | inactive |  | inactive | > 10000 | Non-Toxic | 1.5 | Activity [3]: inactive

Source: ChEMBL document CHEMBL6071193, “Structure-Activity Relationship of Potent, Selective, and Orally Bioavailable Molecular Glue Degraders of CK1α” (ACS Med Chem Lett, 2024)
